Reference: ChEMBL document CHEMBL1150535, “Acyclic NK-1 antagonists: 2-benzhydryl-2-aminoethyl ethers” (Bioorg Med Chem Lett, 1994)

What was measured:
[1] = target: Voltage-gated L-type calcium channel (Homo sapiens, UniProt Q13936+Q13698+Q01668+O60840); assay: Antagonistic activity at L-type calcium channel by displacement of [3H]diltiazem and enhanced [3H]nitrendipine binding; type: protein assay
[2] = target: Substance-P receptor (Homo sapiens, UniProt P25103); assay: Binding affinity towards human Tachykinin receptor 1 expressed in CHO cells by the displacement of [125 I] substance P; type: cell-based
Substance-P receptor, sequence (P25103 whole entry): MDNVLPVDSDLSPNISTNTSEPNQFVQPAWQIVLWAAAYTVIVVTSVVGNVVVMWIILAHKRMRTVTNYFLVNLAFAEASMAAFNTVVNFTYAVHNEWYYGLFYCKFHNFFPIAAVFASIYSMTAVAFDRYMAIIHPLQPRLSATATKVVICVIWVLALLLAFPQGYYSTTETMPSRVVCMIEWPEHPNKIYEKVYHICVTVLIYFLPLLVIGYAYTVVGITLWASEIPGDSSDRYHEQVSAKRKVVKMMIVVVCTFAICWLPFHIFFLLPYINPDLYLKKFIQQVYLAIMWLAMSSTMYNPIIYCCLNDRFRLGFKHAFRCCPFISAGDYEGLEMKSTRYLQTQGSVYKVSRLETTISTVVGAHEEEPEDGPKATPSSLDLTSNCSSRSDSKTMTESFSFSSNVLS

Compound: NC(=O)CN[C@H](COCc1cc(C(F)(F)F)cc(C(F)(F)F)c1)C(c1ccccc1)c1ccccc1
- IC50 [1]: 1.67 µM
- IC50 [2]: 0.53 nM

Compound: CC(=O)NC(COCc1cc(C)cc(C)c1)C(c1ccccc1)c1ccccc1 (stereo not given)
- IC50 [2]: 21 nM

Compound: CCNC(COCc1cc(C)cc(C)c1)C(c1ccccc1)c1ccccc1 (stereo not given)
- IC50 [2]: 12.7 nM

Compound: NC(COCc1ccccc1)C(c1ccccc1)c1ccccc1 (stereo not given)
- IC50 [2]: 367 nM

Compound: Cc1cc(C)cc(COCC(NC=O)C(c2ccccc2)c2ccccc2)c1 (stereo not given)
- IC50 [2]: 11 nM

Compound: Cc1cc(C)cc(COCC(NCC2CC2)C(c2ccccc2)c2ccccc2)c1 (stereo not given)
- IC50 [2]: 93 nM

Compound: NC(COCc1cccc(I)c1)C(c1ccccc1)c1ccccc1 (stereo not given)
- IC50 [2]: 77 nM

Compound: Cc1cc(C)cc(COCC(NCc2ccccc2)C(c2ccccc2)c2ccccc2)c1 (stereo not given)
- IC50 [2]: 82 nM

Compound: Cc1cc(C)cc(COCC(NC(C)C)C(c2ccccc2)c2ccccc2)c1 (stereo not given)
- IC50 [2]: 55 nM

Compound: NC(=O)CNC(COCc1cc(C(F)(F)F)cc(C(F)(F)F)c1)C(c1ccccc1)c1ccccc1 (stereo not given)
- IC50 [2]: 0.85 nM

Compound: Cc1cc(C)cc(COCC(C(c2ccccc2)c2ccccc2)N(C)C)c1 (stereo not given)
- IC50 [2]: 4.4 nM

Compound: Cc1cc(C)cc(COCC(NCC(N)=O)C(c2ccccc2)c2ccccc2)c1 (stereo not given)
- IC50 [1]: 5.5 µM
- IC50 [2]: 2.2 nM

Compound: NC(COCc1cc(Cl)cc(Cl)c1)C(c1ccccc1)c1ccccc1 (stereo not given)
- IC50 [2]: 11.3 nM

Compound: NC(COCc1cccc(Cl)c1)C(c1ccccc1)c1ccccc1 (stereo not given)
- IC50 [2]: 75 nM

Compound: Cc1cc(C)cc(COCC(O)C(c2ccccc2)c2ccccc2)c1 (stereo not given)
- IC50 [2]: 17 nM

Compound: Cc1cc(C)cc(COC[C@@H](C(c2ccccc2)c2ccccc2)N(C)C)c1
- IC50 [2]: 14 nM

Compound: Cc1ccc(C)c(COCC(N)C(c2ccccc2)c2ccccc2)c1 (stereo not given)
- IC50 [2]: 150 nM

Compound: Cc1cc(C)cc(COC[C@H](C(c2ccccc2)c2ccccc2)N(C)C)c1
- IC50 [1]: 0.98 µM
- IC50 [2]: 5.5 nM

Compound: CNC(COCc1cc(C)cc(C)c1)C(c1ccccc1)c1ccccc1 (stereo not given)
- IC50 [2]: 6.8 nM

Compound: Cc1cc(Br)cc(COCC(N)C(c2ccccc2)c2ccccc2)c1 (stereo not given)
- IC50 [2]: 9.7 nM

Compound: COc1ccccc1CN[C@H]1C2CCN(CC2)[C@H]1C(c1ccccc1)c1ccccc1 [CP-96345]
- IC50 [1]: 0.24 µM

Compound: NC(COCc1cc(Br)cc(Br)c1)C(c1ccccc1)c1ccccc1 (stereo not given)
- IC50 [2]: 13.3 nM
